Reference: paper PMC4464186 (EXCLI Journal, 2014)

What was measured:
[1] = test system: metrazol-induced convulsion; settings: metrazol-induced convulsion model, ref Sridhar et al., 2002, cited from earlier work
mice = type: in vivo; settings: rotarod; doses up to 300 mg/kg; 0.5 and 4.0 h
Albino mice = type: in vivo; settings: 100 mg/kg i.p.; with respect to control

| Structure (SMILES) | protection ([1]; at 100 mg kg^-1) | ED50 [1] | neurotoxicity (motor impairment), in words (mice) | % Increased of immobility (Albino mice) |
| --- | --- | --- | --- | --- |
| Cc1ccc2c(c1)C(=Nc1ccc(Cl)cc1)C(=O)N2 [3-(4-Chlorophenylimino)-5-methyl-1,3-dihydro-indol-2-one] | 87% | 53.61 mg/kg | – | – |
| O=c1nc2[nH]c3ccc(Cl)cc3c2n[nH]1 [5e, 8-chloro-2H-[1,2,4]triazino[5,6-b]indol-3(5H)-one] | – | – | no motor impairment effect | 54.39% |
| O=c1nc2[nH]c3c(Br)cc(Br)cc3c2n[nH]1 [5i, 6,8-dibromo-2H-[1,2,4]triazino[5,6-b]indol-3(5H)-one] | – | – | – | 37.68% |
| Cn1c2nc(=O)[nH]nc2c2cc(Br)cc(Br)c21 [5k, 6,8-dibromo-5-methyl-2H-[1,2,4]triazino[5,6-b]indol-3(5H)-one] | – | – | – | 45.96% |
| NC(=O)N1c2ccccc2C=Cc2ccccc21 [Carbamazepine, reference compound] | – | – | – | 58.63% |
